Measured values reported in ChEMBL document CHEMBL5143612, “Antibacterial activity evaluation of vinyl sulfones against global predominant methicillin-resistant Staphylococcus aureus USA300” (Bioorg Med Chem Lett, 2022).
In brackets after ≈: the same amount, converted by molar mass. Activity calls are given as the source filed them. The rule behind the calls is not given here.

How the values were obtained:
[1] = tested on: Pseudomonas aeruginosa; assay: Antibacterial activity against Pseudomonas aeruginosa assessed as inhibition of bacterial growth by measuring zone of inhibition at 30 ug incubated for 18 to 20 hrs by CLSI based disk diffusion analysis; format: functional; conditions: time 18-20 hrs, read-out: DIZ
[2] = tested on: Staphylococcus aureus; assay: Antibacterial activity against community-associated methicillin-resistant Staphylococcus aureus USA300 SF8300 assessed as inhibition of bacterial growth by measuring zone of inhibition at 30 ug incubated for 18 to 20 hrs by CLSI based disk diffusion analysis; format: functional; conditions: time 18-20 hrs, read-out: DIZ
[3] = tested on: Staphylococcus aureus; assay: Antibacterial activity against methicillin-susceptible Staphylococcus aureus ATCC 29213 assessed as inhibition of bacterial growth incubated for 18 to 20 hrs by CLSI based microdilution susceptibility analysis; format: functional; conditions: time 18-20 hrs
[4] = tested on: Staphylococcus aureus; assay: Bactericidal activity against community-associated methicillin-resistant Staphylococcus aureus USA300 SF8300 assessed as inhibition of bacterial growth incubated for 18 to 20 hrs by CLSI based microdilution susceptibility analysis; format: functional; conditions: time 18-20 hrs
[5] = tested on: Staphylococcus aureus; assay: Antibacterial activity against community-associated methicillin-resistant Staphylococcus aureus USA300 SF8300 assessed as inhibition of bacterial growth incubated for 18 to 20 hrs by CLSI based microdilution susceptibility analysis; format: functional; conditions: time 18-20 hrs
[6] = tested on: Staphylococcus aureus; assay: Antibacterial activity against methicillin-susceptible Staphylococcus aureus ATCC 25923 assessed as inhibition of bacterial growth by measuring zone of inhibition at 30 ug incubated for 18 to 20 hrs by CLSI based disk diffusion analysis; format: functional; conditions: time 18-20 hrs, read-out: DIZ
[7] = tested on: Staphylococcus aureus; assay: Bactericidal activity against methicillin-susceptible Staphylococcus aureus ATCC 29213 assessed as inhibition of bacterial growth incubated for 18 to 20 hrs by CLSI based microdilution susceptibility analysis; format: functional; conditions: time 18-20 hrs
[8] = tested on: Pseudomonas aeruginosa; assay: Bactericidal activity against Pseudomonas aeruginosa assessed as inhibition of bacterial growth incubated for 18 to 20 hrs by CLSI based microdilution susceptibility analysis; format: functional; conditions: time 18-20 hrs
[9] = tested on: Pseudomonas aeruginosa; assay: Antibacterial activity against Pseudomonas aeruginosa assessed as inhibition of bacterial growth incubated for 18 to 20 hrs by CLSI based microdilution susceptibility analysis; format: functional; conditions: time 18-20 hrs
[10] = tested on: Staphylococcus aureus; assay: Inhibition of methicillin-susceptible Staphylococcus aureus ATCC 29213 bacterial cell adhesion to fibronectin at 0.1 mg/ml followed by compound addition on fibronectin precoated plate measured after 2 hrs by crystal violet dye based analysis; format: functional
[11] = target: T1, Sortase A (Staphylococcus aureus, UniProt Q9S446); assay: Inhibition of Staphylococcus aureus sortase A using Abz/Dnp fluorescent peptide as a substrate measured after 30 mins by fluorescent based analysis
T1 sequence (Q9S446 whole entry): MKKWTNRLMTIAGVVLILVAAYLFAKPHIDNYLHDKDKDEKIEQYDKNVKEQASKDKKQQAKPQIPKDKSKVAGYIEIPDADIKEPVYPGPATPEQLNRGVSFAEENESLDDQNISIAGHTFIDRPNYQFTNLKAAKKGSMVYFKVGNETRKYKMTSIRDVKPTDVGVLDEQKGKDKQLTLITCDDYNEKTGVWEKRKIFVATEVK

[12] = target: Albumin (Homo sapiens, UniProt P02768); assay: Binding affinity to cysteine residue of human serum albumin assessed as conjugation of compound with protein at 1:1 compound to human serum albumin concentration incubated for 2 hr by LC-MS/MS analysis; format: cell-free
Chain of Albumin (P02768 whole entry): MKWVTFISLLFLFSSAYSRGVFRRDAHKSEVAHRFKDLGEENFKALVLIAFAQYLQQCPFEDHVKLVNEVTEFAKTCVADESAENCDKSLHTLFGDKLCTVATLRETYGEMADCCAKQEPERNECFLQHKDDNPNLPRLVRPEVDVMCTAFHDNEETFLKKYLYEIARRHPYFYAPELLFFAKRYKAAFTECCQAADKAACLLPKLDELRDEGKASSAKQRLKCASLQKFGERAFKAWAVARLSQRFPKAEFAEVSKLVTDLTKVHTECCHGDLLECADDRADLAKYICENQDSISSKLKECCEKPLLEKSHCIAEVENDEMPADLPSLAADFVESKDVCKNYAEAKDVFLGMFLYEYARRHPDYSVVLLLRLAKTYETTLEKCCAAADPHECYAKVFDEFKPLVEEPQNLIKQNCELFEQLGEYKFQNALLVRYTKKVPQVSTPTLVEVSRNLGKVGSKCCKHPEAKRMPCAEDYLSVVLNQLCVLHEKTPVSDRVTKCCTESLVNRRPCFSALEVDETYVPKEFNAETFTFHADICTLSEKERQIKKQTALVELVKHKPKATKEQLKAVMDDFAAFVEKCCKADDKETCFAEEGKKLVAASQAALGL

SMILES	zone of inhibition at 30 µg/disc [1] [mm]	zone of inhibition at 30 µg/disc [2] [mm]	MIC [3] [µg/mL]	MBC [4] [µg/mL]	MIC [5] [µg/mL]	zone of inhibition at 30 µg/disc [6] [mm]	MBC [7] [µg/mL]	MBC [8] [µg/mL]	MIC [9] [µg/mL]	inhibition [10]	IC50 [11] [µM]	Activity [12]
Cc1ccc(S(=O)(=O)/C=C/C(=O)OC(C)(C)C)cc1	6	16.7	7.5 (≈ 26.6 µM)	60 (≈ 212 µM)	30 (≈ 106 µM)	14.9	120 (≈ 425 µM)	–	–	–	–	–
O=S(=O)(/C=C/CCCBr)c1ccc(Br)cc1	6	6	–	–	–	6	–	–	–	–	–	–
C/C(C#N)=C\S(=O)(=O)c1ccc(C)cc1	6	11.3	–	120 (≈ 542 µM)	30 (≈ 136 µM)	6	–	–	–	–	–	–
COC(=O)/C=C/S(=O)(=O)c1ccc(C)cc1	10.6	18.7	7.5 (≈ 31.2 µM)	120 (≈ 499 µM)	15 (≈ 62.4 µM)	20.6	120 (≈ 499 µM)	> 120	> 120	–	–	–
Cc1ccc(S(=O)(=O)/C=C/c2ccc(Cl)cc2)cc1	6	6	–	–	–	6	–	–	–	–	–	–
N#C/C=C\S(=O)(=O)c1ccc(Cl)cc1	16.3	6	7.5 (≈ 32.9 µM)	–	–	20	60 (≈ 264 µM)	60 (≈ 264 µM)	60 (≈ 264 µM)	Active	–	–
Cc1ccc(S(=O)(=O)/C=C/C#N)cc1	12.9	27.7	1.88 (≈ 9.05 µM)	60 (≈ 289 µM)	7.5 (≈ 36.2 µM)	28	15 (≈ 72.4 µM)	> 120	120 (≈ 579 µM)	Active	129	Active
COc1ccc(S(=O)(=O)/C=C/C#N)cc1	13.3	25.9	1.88 (≈ 8.4 µM)	30 (≈ 134 µM)	3.75 (≈ 16.8 µM)	26.9	30 (≈ 134 µM)	> 120	> 120	Active	–	–
Cc1ccc(S(=O)(=O)/C=C/CCCBr)cc1	6	6	–	–	–	6	–	–	–	–	–	–
COC(=O)/C(C)=C/S(=O)(=O)c1ccc(C)cc1	6	6	–	–	–	6	–	–	–	–	–	–
Cc1ccc(S(=O)(=O)/C=C/Cc2ccccc2)cc1	6	6	–	–	–	6	–	–	–	–	–	–
N#C/C=C/S(=O)(=O)c1ccccc1	14.1	25.2	1.88 (≈ 9.7 µM)	60 (≈ 311 µM)	7.5 (≈ 38.8 µM)	22.6	30 (≈ 155 µM)	60 (≈ 311 µM)	60 (≈ 311 µM)	Active	–	–
N#C/C=C/S(=O)(=O)c1ccc(Cl)cc1	13.9	25.5	1.88 (≈ 8.24 µM)	60 (≈ 264 µM)	7.5 (≈ 32.9 µM)	22.8	15 (≈ 65.9 µM)	120 (≈ 527 µM)	60 (≈ 264 µM)	Active	–	–
Cc1ccc(S(=O)(=O)/C=C/C(=O)O)cc1	6	6	> 120	–	–	9.94	> 120	–	–	–	–	–
Cc1ccc(S(=O)(=O)C/C=C\Oc2ccccc2)cc1	6	6	–	–	–	6	–	–	–	–	–	–
C/C(=C/C#N)S(=O)(=O)c1ccc(C)cc1	6	23.6	7.5 (≈ 33.9 µM)	15 (≈ 67.8 µM)	7.5 (≈ 33.9 µM)	23.6	7.5 (≈ 33.9 µM)	–	–	–	–	–
N#C/C=C\S(=O)(=O)c1ccccc1	14.1	6	15 (≈ 77.6 µM)	–	–	22.3	30 (≈ 155 µM)	120 (≈ 621 µM)	60 (≈ 311 µM)	Active	–	–
N#C/C=C/S(=O)(=O)c1ccc([N+](=O)[O-])cc1	13.1	6	30 (≈ 126 µM)	–	–	21.1	60 (≈ 252 µM)	120 (≈ 504 µM)	120 (≈ 504 µM)	Active	–	–
CCS(=O)(=O)c1ccc(C)cc1	6	6	–	–	–	6	–	–	–	–	–	–
C/C(=C\C#N)S(=O)(=O)c1ccc(C)cc1	6	6	60 (≈ 271 µM)	–	–	16.2	60 (≈ 271 µM)	–	–	–	–	–
COc1ccc(S(=O)(=O)/C=C\C#N)cc1	14.2	24.7	3.75 (≈ 16.8 µM)	60 (≈ 269 µM)	15 (≈ 67.2 µM)	24.5	60 (≈ 269 µM)	120 (≈ 538 µM)	120 (≈ 538 µM)	Active	–	–
Cc1ccc(S(=O)(=O)/C=C/COCc2ccccc2)cc1	6	6	> 120	–	–	8.3	> 120	–	–	–	–	–
N#C/C=C\S(=O)(=O)c1ccc(Br)cc1	13.8	23.4	30 (≈ 110 µM)	120 (≈ 441 µM)	60 (≈ 220 µM)	22.6	30 (≈ 110 µM)	> 120	60 (≈ 220 µM)	Active	–	–
CCCCOC(=O)/C=C/S(=O)(=O)c1ccc(C)cc1	6	15.1	7.5 (≈ 26.6 µM)	> 120	60 (≈ 212 µM)	13.9	120 (≈ 425 µM)	–	–	–	–	–
N#C/C=C/S(=O)(=O)c1ccc(Br)cc1	12.9	25.7	7.5 (≈ 27.6 µM)	60 (≈ 220 µM)	15 (≈ 55.1 µM)	24.7	15 (≈ 55.1 µM)	> 120	120 (≈ 441 µM)	Active	–	–
Cc1ccc(/C=C/S(=O)(=O)c2ccc(C)cc2)cc1	6	6	–	–	–	6	–	–	–	–	–	–
O=[N+]([O-])c1ccc(S(=O)(=O)/C=C/CCCBr)cc1	6	6	–	–	–	6	–	–	–	–	–	–
Cc1ccc(S(=O)(=O)/C=C/C(N)=O)cc1	6	6	60 (≈ 266 µM)	–	–	22	60 (≈ 266 µM)	–	–	–	–	–
